The text below walks through data of ChEMBL document CHEMBL4270549, “Influence of the C-5 substitution in polysubstituted pyrimidines on inhibition of prostaglandin E2 production” (Eur J Med Chem, 2018).

What is called pIC50 is −log10 of the IC50, conventionally taken in molar units.

pIC50: −log10 of the molar value. The source made the active and inactive calls. No cut-off for these calls is given here.

One data set is filed under the species Mus musculus. Put plainly: Inhibition of LPS-induced PGE2 production in C57BL6 mouse peritoneal cells at 50 uM measured at 5 hrs time interval by ELISA. Type of data set: functional. A general note: An ELISA detects its analyte on a solid surface through an enzyme-linked reagent.
A short description of data set [1]: Cytotoxicity against C57BL6 mouse peritoneal cells assessed as cell viability measured at 5 hrs time interval by LDH release assay (reference value: 98.9 +/- 1.6%). Type of data set: cell-based. The note with it: read-out: Activity. (LDH in the medium is a marker of cell lysis.)
Data set [2] can be described thus: Inhibition of LPS-induced PGE2 production in C57BL6 mouse peritoneal cells measured at 5 hrs time interval by ELISA. It is filed as functional. The note with it: C57BL6, 5 h.

On to `Cc1c(Cl)nc(N)nc1Cl`, for which the inhibition result in the data set listed under Mus musculus is “inactive”.

As for `Nc1nc(Cl)cc(-c2ccccc2)n1`, the inhibition entry in the data set listed under Mus musculus is “Active”.

As to `CCCCc1c(-c2ccccc2)nc(N)nc1-c1ccc(C)cc1`, the inhibition result in the data set filed under Mus musculus is “Active”. The viability at 5 h in data set [1] stood at 102%. This compound had a negative logarithm of the IC50 (pIC50) in data set [2] of 5.61.

Take `Cc1c(-c2ccccc2)nc(N)nc1-c1ccccc1`: the inhibition entry in the data set filed under Mus musculus is “Active”.

Regarding `Cc1ccc(-c2nc(N)nc(Cl)c2C)cc1`, in the data set listed under Mus musculus, the inhibition result is “Active”.

As for `Cc1c(Cl)nc(N)nc1-c1ccccc1`, the inhibition entry in the data set listed under Mus musculus was “Active”.

Turning to `Cc1ccc(-c2cc(Cl)nc(N)n2)cc1`, in the data set listed under Mus musculus, the inhibition entry is “Active”. In data set [1], the viability at 5 h came out at 103%. This compound showed a pIC50 in data set [2] of 5.63.

On to `CC(=O)Oc1ccccc1C(=O)O` [ASPIRIN], for which the pIC50 in data set [2] is 5.39.

On to `COc1ccc(-c2nc(N)nc(-c3ccccc3)c2C)cc1`, for which the inhibition result in the data set filed under Mus musculus was “Active”.

For the compound `Cc1ccc(-c2nc(N)nc(-c3ccc(C)cc3)c2C)cc1`, the inhibition result in the data set filed under Mus musculus was “Active”.

Take `CCCCc1c(Cl)nc(N)nc1-c1ccccc1`: the inhibition entry in the data set filed under Mus musculus was “Active”.

Regarding `COc1ccc(-c2cc(-c3ccccc3)nc(N)n2)cc1`, in the data set listed under Mus musculus, the inhibition result was “Active”. Further, in data set [1], the viability at 5 h was found to be 99.9%. The same compound gave a negative logarithm of the IC50 (pIC50) in data set [2] of 8.05.

With `Nc1nc(Cl)cc(Cl)n1`, the inhibition entry in the data set listed under Mus musculus was “inactive”.

As for `COc1ccc(-c2cc(-c3ccc(OC)cc3)nc(N)n2)cc1`, the inhibition entry in the data set listed under Mus musculus is “Active”. Also, the viability at 5 h in data set [1] worked out at 102%. Besides, in data set [2], the pIC50 is 6.92.

Consider `CCCCc1c(-c2ccccc2)nc(N)nc1-c1ccc(OC)cc1`, for which the inhibition entry in the data set filed under Mus musculus was “Active”. Further, in data set [1], the viability at 5 h came to 102%. Moreover, in data set [2], the negative logarithm of the IC50 (pIC50) is 5.47.

Regarding `CCCCc1c(Cl)nc(N)nc1-c1ccc(OC)cc1`, the inhibition entry in the data set listed under Mus musculus is “Active”. The viability at 5 h in data set [1] was determined as 96.6%. The negative logarithm of the IC50 (pIC50) in data set [2] is 5.67.

For the compound `COc1ccc(-c2nc(N)nc(-c3ccc(C)cc3)c2C)cc1`, in the data set listed under Mus musculus, the inhibition entry was “Active”.

In the case of `CCCCc1c(Cl)nc(N)nc1Cl`, the inhibition entry in the data set listed under Mus musculus is “Active”. Further, the viability at 5 h in data set [1] worked out at 99.8%. The same compound gave a negative logarithm of the IC50 (pIC50) in data set [2] of 5.27.

Take `CCCCc1c(Cl)nc(N)nc1-c1ccc(C)cc1`: the inhibition result in the data set listed under Mus musculus is “Active”. Moreover, in data set [1], the viability at 5 h was found to be 101%. This compound had a negative-log IC50 (pIC50) in data set [2] of 5.73.

For the compound `COc1ccc(-c2nc(N)nc(Cl)c2C)cc1`, in the data set filed under Mus musculus, the inhibition entry is “Active”.

With `CCCCc1c(-c2ccccc2)nc(N)nc1-c1ccccc1`, the inhibition entry in the data set filed under Mus musculus is “Active”.

In data set [2], `COc1ccc2c(c1)c(CC(=O)O)c(C)n2C(=O)c1ccc(Cl)cc1` [INDOMETHACIN] showed a pIC50 of 8.30.

As for `COc1ccc(-c2cc(Cl)nc(N)n2)cc1`, in the data set listed under Mus musculus, the inhibition result was “Active”. Besides, the viability at 5 h in data set [1] was found to be 103%. Moreover, in data set [2], the negative-log IC50 (pIC50) was 5.55.

With `Cc1ccc(-c2cc(-c3ccc(C)cc3)nc(N)n2)cc1`, the inhibition result in the data set listed under Mus musculus was “Active”. The viability at 5 h in data set [1] amounted to 103%. This compound also had a pIC50 in data set [2] of 7.48.

For `Nc1nc(-c2ccccc2)cc(-c2ccccc2)n1`, the inhibition entry in the data set listed under Mus musculus is “Active”. In addition, the viability at 5 h in data set [1] was 97.4%. Further, the negative-log IC50 (pIC50) in data set [2] was 8.52.

As for `Cc1ccc(-c2cc(-c3ccccc3)nc(N)n2)cc1`, the inhibition result in the data set filed under Mus musculus was “Active”. In data set [1], the viability at 5 h turned out to be 103%. This compound gave a pIC50 in data set [2] of 8.05.

Regarding `Cc1ccc(-c2nc(N)nc(-c3ccccc3)c2C)cc1`, the inhibition result in the data set listed under Mus musculus was “Active”.

`COc1ccc(-c2cc(-c3ccc(C)cc3)nc(N)n2)cc1`: the inhibition entry in the data set filed under Mus musculus is “Active”.

For the compound `CCCCc1c(-c2ccc(OC)cc2)nc(N)nc1-c1ccc(OC)cc1`, the inhibition result in the data set listed under Mus musculus was “Active”. Also, the viability at 5 h in data set [1] came to 99.1%. In data set [2], this compound showed a pIC50 of 5.43.

As to `COc1ccc(-c2nc(N)nc(-c3ccc(OC)cc3)c2C)cc1`, the inhibition result in the data set filed under Mus musculus was “Active”.

Take `CCCCc1c(-c2ccc(C)cc2)nc(N)nc1-c1ccc(OC)cc1`: the inhibition result in the data set filed under Mus musculus was “Active”.

Take `CCCCc1c(-c2ccc(C)cc2)nc(N)nc1-c1ccc(C)cc1`: the inhibition result in the data set listed under Mus musculus was “Active”.
